From patent US12201602B2, “Medicament comprising combination of sepetaprost and Rho-associated coiled-coil containing protein kinase inhibitor” (SANTEN PHARMACEUTICAL CO., LTD., priority 2017, dated 2025)

What was measured:
normal pressure monkeys [1] = assay: Intraocular pressure lowering effect of sepetaprost and netarsudil, alone and concomitantly (Example 2); type: in vivo, cynomolgus monkey; details: eye drop 20 μL/eye, sepetaprost 0.0003% (w/v), netarsudil 0.01% (w/v), average of 8 monkeys
Description: In order to examine usefulness of the combination of sepetaprost and a Rho-associated coiled-coil containing protein kinase inhibitor(s), the effect of lowering an intraocular pressure when sepetaprost and netarsudil which is a Rho-associated coiled-coil containing protein kinase inhibitor were administered concomitantly to experimental animals (normal pressure monkeys) was investigated. Sepetaprost was dissolved in purified water containing a solubilizing agent, and then, a sepetaprost solution with a desired concentration was prepared by using a commonly used method. […] An effect of lowering an intraocular pressure when sepetaprost and netarsudil were administered concomitantly was investigated. As a comparative subject, an effect of lowering an intraocular pressure when sepetaprost or netarsudil was administered alone was also investigated. As a control, the base of the sepetaprost solution and the base of the netarsudil solution were administered. […] Also, the intraocular pressure was measured each three times, and the average value was calculated. With respect to the changed value of the intraocular pressure (mmHg), a difference from the value of the intraocular pressure before administration at each measurement time point was calculated. […] The test was carried out in the same manner as the above-mentioned concomitant administration test except for changing the netarsudil solution to the base of the netarsudil solution. The test was carried out in the same manner as the above-mentioned concomitant administration test except for changing the sepetaprost solution to the base of the sepetaprost solution. The test was carried out in the same manner as the above-mentioned concomitant administration test except for changing the sepetaprost solution to the base of the sepetaprost solution and changing the netarsudil solution to the base of the netarsudil solution. The changes in the lowering of the intraocular pressure with the lapse of time for each administered group are shown in FIG. 2 and Table 2. The change in the intraocular pressure values are shown by an average value ±SEM of the difference from the value (0 hour) before administration of eight monkeys in each group with regard to each measurement time point of each individual. Comparison of the control group with the sepetaprost group, the netarsudil group, or the sepetaprost/netarsudil concomitant use group, and comparison of the sepetaprost/netarsudil concomitant use group with the sepetaprost group or the netarsudil group was carried out by, after carrying out the Bartlett test, in the case where dispersion is uniform, using the Dunnett test, or in the case of ununiform, using the Steel test. The significance level with respect to the control group was shown as *: p<0.05 and **: p<0.01 in the Steel test, and *: […] in the Dunnett test.

normal pressure monkeys [2] = assay: Intraocular pressure lowering effect of sepetaprost and ripasudil, alone and concomitantly (Example 1); type: in vivo, cynomolgus monkey; details: eye drop 20 μL/eye, sepetaprost 0.0003% (w/v), ripasudil 0.4% (w/v), average of 8 monkeys
Description: In order to examine usefulness of the combination of sepetaprost and a Rho-associated coiled-coil containing protein kinase inhibitor(s), the effect of lowering an intraocular pressure when sepetaprost and ripasudil which is a Rho-associated coiled-coil containing protein kinase inhibitor were administered concomitantly to experimental animals (normal pressure monkeys) was investigated. Sepetaprost was dissolved in purified water containing a solubilizing agent, and then, a sepetaprost solution with a desired concentration was prepared by using a commonly used method. Commercially available ripasudil eye drop (Kowa Company, Ltd., […] (Registered Trademark) eye drops 0.4%) was used as it was. An effect of lowering an intraocular pressure when sepetaprost and ripasudil were administered concomitantly was investigated. As a comparative subject, an effect of lowering an intraocular pressure when sepetaprost or ripasudil was administered alone was also investigated. As a control, the base of the sepetaprost solution and physiological saline solution were administered. • Sepetaprost solution: 0.0003% (w/v) sepetaprost solution (volume of eye dropped: 20 μL/eye) • Ripasudil solution: 0.4% (w/v) ripasudil solution (trade name: […] Also, the intraocular pressure was measured each three times, and the average value was calculated. With respect to the changed value of the intraocular pressure (mmHg), a difference from the value of the intraocular pressure before administration at each measurement time point was calculated. […] The test was carried out in the same manner as the above-mentioned concomitant administration test except for changing the ripasudil solution to the physiological saline solution. The test was carried out in the same manner as the above-mentioned concomitant administration test except for changing the sepetaprost solution to the base of the sepetaprost solution. The test was carried out in the same manner as the above-mentioned concomitant administration test except for changing the sepetaprost solution to the base of the sepetaprost solution and changing the ripasudil solution to the physiological saline solution. The changes in the lowering of the intraocular pressure with the lapse of time for each administered group are shown in FIG. 1 and Table 1. The changes in the intraocular pressure values are shown by an average value ±SEM of the difference from the value (0 hour) before administration of eight monkeys in each group with regard to each measurement time point of each individual. Comparison of the control group with the sepetaprost group, the ripasudil group, or the sepetaprost/ripasudil concomitant use group, and comparison of the sepetaprost/ripasudil concomitant use group with the sepetaprost group or the ripasudil group was carried out by, after carrying out the Bartlett test, in the case where dispersion is uniform, using the Dunnett test, or in the case of ununiform, using the Steel test. The significance level with respect to the control group was shown as ##: p<0.01 in the Dunnett test, and *: p<0.05 and **: p<0.01 in the Steel test.

Compound | changed value of the intraocular pressure (difference from value before administration) (normal pressure monkeys [1]; 2 hours after dropping) [mmHg] | changed value of the intraocular pressure (difference from value before administration) (normal pressure monkeys [1]; 4 hours after dropping) [mmHg] | changed value of the intraocular pressure (difference from value before administration) (normal pressure monkeys [1]; 6 hours after dropping) [mmHg] | changed value of the intraocular pressure (difference from value before administration) (normal pressure monkeys [1]; 8 hours after dropping) [mmHg] | changed value of the intraocular pressure (difference from value before administration) (normal pressure monkeys [1]; 24 hours after dropping) [mmHg] | changed value of the intraocular pressure (difference from value before administration) (normal pressure monkeys [2]; 2 hours after dropping) [mmHg] | changed value of the intraocular pressure (difference from value before administration) (normal pressure monkeys [2]; 4 hours after dropping) [mmHg] | changed value of the intraocular pressure (difference from value before administration) (normal pressure monkeys [2]; 6 hours after dropping) [mmHg] | changed value of the intraocular pressure (difference from value before administration) (normal pressure monkeys [2]; 8 hours after dropping) [mmHg] | changed value of the intraocular pressure (difference from value before administration) (normal pressure monkeys [2]; 24 hours after dropping) [mmHg]
CC(C)OC(=O)CCC[C@H]1CC[C@@H]2[C@@H](/C=C/[C@@H](O)COc3cc(F)ccc3F)[C@H](O)C[C@@H]2OC1 [Sepetaprost, 2-propanyl 4-{(3S, 5aR, 6R, 7R, 8aS)-6-[(1E, 3R)-4-(2,5-difluorophenoxy)-3-hydroxy-1-buten-1-yl]-7-hydroxyoctahydro-2H-cyclopenta[b]oxepin-3-yl}butanoate] | −0.2 | −1.6 | −2.2 | −2.0 | −1.1 | −0.1 | −0.9 | −1.8 | −1.9 | −0.6
Cc1ccc(C(=O)OCc2ccc([C@@H](CN)C(=O)Nc3ccc4cnccc4c3)cc2)c(C)c1 [Netarsudil, [4-[(1S)-1-(aminomethyl)-2-(isoquinolin-6-ylamino)-2-oxoethyl]phenyl]methyl 2,4-dimethylbenzoate] | −0.4 | −2.2 | −2.1 | −2.3 | −0.6 |  |  |  |  | 
C[C@H]1CNCCCN1S(=O)(=O)c1cccc2cncc(F)c12 [Ripasudil, (S)-(−)-1-(4-fluoro-5-isoquinolinesulfonyl)-2-methyl-1,4-homopiperazine] |  |  |  |  |  | −2.4 | −1.8 | −1.6 | −1.5 | −0.4
